Counter-ions that a name gives are not always drawn.
Target: T1, human sigma 1 receptor (Homo sapiens, UniProt Q99720)
T1 construct: expressed in transfected cells; host or cells: HEK-293
Experiment: Human Sigma 1 Receptor Radioligand Assay
Type: binding
Details: [3H](+)-pentazocine radioligand 5 nM; transfected HEK-293 membranes; 37° C., 120 minutes
Experimental: Human Sigma 1 Receptor Radioligand Assay
To investigate binding properties of sigma 1 receptor ligands to human sigma 1 receptor, transfected HEK-293 membranes and [^3H](+)-pentazocine (Perkin Elmer, NET-1056), as the radioligand, were used. The assay was carried out with 7 μg of membrane suspension, 5 nM of [^3H](+)-pentazocine in either absence or presence of either buffer or 10 μM Haloperidol for total and non-specific binding, respectively. Binding buffer contained Tris-HCl 50 mM at pH 8. Plates were incubated at 37° C. for 120 minutes. After the incubation period, the reaction mix was then transferred to MultiScreen HTS, FC plates (Millipore), filtered and plates were washed 3 times with ice-cold 10 mM Tris-HCL (pH 7.4). Filters were dried and counted at approximately 40% efficiency in a MicroBeta scintillation counter (Perkin-Elmer) using EcoScint liquid scintillation cocktail.

T1 sequence (Q99720 whole entry): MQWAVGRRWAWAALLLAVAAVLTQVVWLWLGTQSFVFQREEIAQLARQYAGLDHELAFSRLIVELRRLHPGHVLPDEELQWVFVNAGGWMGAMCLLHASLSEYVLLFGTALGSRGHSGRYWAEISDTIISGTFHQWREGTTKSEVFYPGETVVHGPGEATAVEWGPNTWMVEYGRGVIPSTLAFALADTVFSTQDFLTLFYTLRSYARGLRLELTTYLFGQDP

SMILES	Ki
Clc1ccc(OC[C@@H]2CC[C@@H]2CN2CCOCC2)cc1Cl [Example 19, 4-(((1S,2R)-2-((3,4-Dichlorophenoxy)methyl)cyclobutyl)methyl)morpholine hydrochloride]	3.7 nM
c1ccc(OC[C@@H]2CC[C@@H]2CN2CCOCC2)cc1 [Example 17, 4-(((1S,2R)-2-(Phenoxymethyl)cyclobutyl)methyl)morpholine hydrochloride]	33.9 nM
Cc1cc(OC[C@@H]2CC[C@H]2CN2CCCC2)nn1-c1ccc(Cl)c(Cl)c1 [Example 29, 1-(3,4-Dichlorophenyl)-5-methyl-3-(((1R,2R)-2-(pyrrolidin-1-ylmethyl)cyclobutyl)methoxy)-1H-pyrazole]	113 nM
c1ccc(OC[C@@H]2CC[C@@H]2CN2CCCC2)cc1 [Example 1, 1-(((1S,2R)-2-(Phenoxymethyl)cyclobutyl)methyl)pyrrolidine]	7.1 nM
CC1CCN(C[C@H]2CC[C@H]2COc2ccc(Cl)c(Cl)c2)CC1 [Example 20, 1-(((1S,2R)-2-((3,4-Dichlorophenoxy)methyl)cyclobutyl)methyl)-4-methylpiperidine hydrochloride]	4.8 nM
Clc1ccc(-n2ccc(OC[C@@H]3CC[C@@H]3CN3CCOCC3)n2)cc1Cl [Example 26, 4-(((1S,2R)-2-(((1-(3,4-Dichlorophenyl)-1H-pyrazol-3-yl)oxy)methyl)cyclobutyl)methyl)morpholine hydrochloride]	13.4 nM
CC1CCN(C[C@H]2CC[C@H]2COc2ccccc2)CC1 [Example 3, 4-Methyl-1-(((1S,2R)-2-(phenoxymethyl)cyclobutyl)methyl)piperidine]	2.8 nM
CCN(CC)C[C@H]1CC[C@@H]1COc1ccccc1 [Example 39, N,N-Diethyl-N-(((1S,2S)-2-(phenoxymethyl)cyclobutyl)methyl)ethanamine hydrochloride]	39.9 nM
Cn1nc(OC[C@H]2CC[C@@H]2CN2CCCC2)cc1C(F)(F)F [Example 38, 1-Methyl-3-(((1S,2S)-2-(pyrrolidin-1-ylmethyl)cyclobutyl)methoxy)-5-(trifluoromethyl)-1H-pyrazole hydrochloride]	75.8 nM
Cc1cc(OC[C@H]2CC[C@@H]2CN2CCOCC2)nn1-c1ccc(Cl)c(Cl)c1 [Example 36, 4-(((1S,2S)-2-(((1-(3,4-Dichlorophenyl)-5-methyl-1H-pyrazol-3-yl)oxy)methyl)cyclobutyl)methyl)morpholine]	465 nM
Cc1cc(OC[C@@H]2CC[C@@H]2CN2CCOCC2)nn1-c1ccc(Cl)c(Cl)c1 [Example 16, 4-(((1S,2R)-2-(((1-(3,4-Dichlorophenyl)-5-methyl-1H-pyrazol-3-yl)oxy)methyl)cyclobutyl)methyl)morpholine]	178 nM
Clc1ccc(-n2ccc(OC[C@@H]3CC[C@@H]3CN3CCCC3)n2)cc1Cl [Example 25, 1-(3,4-Dichlorophenyl)-3-(((1R,2S)-2-(pyrrolidin-1-ylmethyl)cyclobutyl)methoxy)-1H-pyrazole hydrochloride]	20.4 nM
Clc1ccc(OC[C@@H]2CC[C@@H]2CN2CCCC2)cc1Cl [Example 18, 1-(((1S,2R)-2-((3,4-Dichlorophenoxy)methyl)cyclobutyl)methyl)pyrrolidine hydrochloride]	2.3 nM
Cc1cc(OC[C@@H]2CC[C@@H]2CN2CCCC2)nn1-c1ccc(Cl)c(Cl)c1 [Example 27, 1-(3,4-Dichlorophenyl)-5-methyl-3-(((1R,2S)-2-(pyrrolidin-1-ylmethyl)cyclobutyl)methoxy)-1H-pyrazole hydrochloride]	72.5 nM
Cc1cc(OC[C@@H]2CC[C@H]2CN2CCOCC2)nn1-c1ccc(Cl)c(Cl)c1 [Example 30, 4-(((1R,2R)-2-(((1-(3,4-Dichlorophenyl)-5-methyl-1H-pyrazol-3-yl)oxy)methyl)cyclobutyl)methyl)morpholine]	578 nM
Clc1ccc(-n2ccc(OC[C@@H]3CC[C@@H]3CN3CCCC3)n2)cc1Cl [Example 13, 1-(3,4-Dichlorophenyl)-3-(((1R,2S)-2-(pyrrolidin-1-ylmethyl)cyclobutyl)methoxy)-1H-pyrazole]	16.5 nM
Cn1nc(OC[C@@H]2CC[C@@H]2CN2CCOCC2)cc1C(F)(F)F [Example 22, 4-(((1S,2R)-2-(((1-Methyl-5-(trifluoromethyl)-1H-pyrazol-3-yl)oxy)methyl)cyclobutyl)methyl)morpholine hydrochloride]	5.6 nM
Cn1nc(C(F)(F)F)cc1OC[C@@H]1CC[C@@H]1CN1CCCC1 [Example 23, 1-Methyl-5-(((1R,2S)-2-(pyrrolidin-1-ylmethyl)cyclobutyl)methoxy)-3-(trifluoromethyl)-1H-pyrazole hydrochloride]	30.1 nM
Cc1cc(OC[C@@H]2CC[C@@H]2CN2CCCC2)nn1-c1ccc(Cl)c(Cl)c1 [Example 15, 1-(3,4-Dichlorophenyl)-5-methyl-3-(((1R,2S)-2-(pyrrolidin-1-ylmethyl)cyclobutyl)methoxy)-1H-pyrazole]	50.3 nM
Cn1nc(OC[C@@H]2CC[C@H]2CN2CCCC2)cc1C(F)(F)F [Example 32, 1-Methyl-3-(((1R,2R)-2-(pyrrolidin-1-ylmethyl)cyclobutyl)methoxy)-5-(trifluoromethyl)-1H-pyrazole hydrochloride]	17.2 nM
Cn1nc(OC[C@@H]2CC[C@@H]2CN2CCCC2)cc1C(F)(F)F [Example 21, 1-Methyl-3-(((1R,2S)-2-(pyrrolidin-1-ylmethyl)cyclobutyl)methoxy)-5-(trifluoromethyl)-1H-pyrazole hydrochloride]	19.1 nM
Cn1nc(OC[C@H]2CC[C@H]2CN2CCCC2)cc1C(F)(F)F [Example 34, 1-Methyl-3-(((1S,2R)-2-(pyrrolidin-1-ylmethyl)cyclobutyl)methoxy)-5-(trifluoromethyl)-1H-pyrazole hydrochloride]	28.3 nM
Clc1ccc(-n2ccc(OC[C@@H]3CC[C@H]3CN3CCCC3)n2)cc1Cl [Example 28]	104 nM
